Laboratory results reported in US20220194914A1, “METHODS AND SYSTEMS FOR PRODUCTION OF FURFURAL” (SHELL OIL COMPANY, priority 2020, published 2022).
Like-named read-outs stand apart in the source and are kept apart here.

How the values were obtained:
[1] = Partitioning of components between the aqueous and non-aqueous phase of the biphasic solution (Example 4); assay type: physicochemical; conditions: aqueous pH 1 (H2SO4), calculated ionic strength 3.0 M (Na2SO4) / MN, 1:1 volume
From the text: The non-aqueous phase solution contains MN, PBA, and furfural. The biphasic solution was mixed to allow adequate contact amongst the various components, and the biphasic solution was subsequently allowed to settle into the two phases: aqueous and non-aqueous.

[2] = octanol-water, cited from earlier work
[3] = cited from earlier work; for Water solubility g/L (20° C.) / water solubility: 20° C.

Compound: O=S(=O)([O-])[O-].[Na+].[Na+] [Salt (based on 2Na), Na2SO4]
- mol % of the component in Aqueous Phase with respect to the biphasic solution [1]: (>99 mol %)
- mol % of the component in Non-aqueous Phase with respect to the biphasic solution [1]: (0.2 mol %)
- molar concentration in Aqueous Phase [1]: 1M
- molar concentration in Non-aqueous Phase [1]: 2 mM
- mol % of the component in Aqueous Phase with respect to the biphasic solution ([1]; listed as Na2SO4): over 99 mol %

Compound: OB(O)c1ccc2ccccc2c1 [2-naphthylboronic acid]
- LogP ([2]; Table 1 boronic acids): 2.82
- LogP [2]: 2.82
- Water solubility g/L (20° C.) ([3]; Table 1 boronic acids): 0.3 g/L
- water solubility [3]: 0.03 wt %

Compound: Cc1ccccc1B(O)O [o-tolylboronic acid]
- LogP ([2]; Table 1 boronic acids): 2.05
- Water solubility g/L (20° C.) ([3]; Table 1 boronic acids): Slightly

Compound: CCCCB(O)O [butylboronic acid]
- LogP ([2]; Table 1 boronic acids): 1.43
- Water solubility g/L (20° C.) ([3]; Table 1 boronic acids): 25 g/L

Compound: Cc1cccc(B(O)O)c1 [m-tolylboronic acid]
- LogP ([2]; Table 1 boronic acids): 2.05
- Water solubility g/L (20° C.) ([3]; Table 1 boronic acids): 25 g/L

Compound: CCCCCCCCB(O)O [octylboronic acid]
- LogP ([2]; Table 1 boronic acids): 3.56
- LogP [2]: 3.56
- Water solubility g/L (20° C.) ([3]; Table 1 boronic acids): Insoluble
- water solubility [3]: water-insoluble

Compound: Cc1cccc(O)c1 [Cresol (m)]
- LogP ([2]; Table 2 solvents): 1.94

Compound: CCc1ccc(B(O)O)cc1 [4-ethylphenyl boronic acid]
- LogP ([2]; Table 1 boronic acids): 2.58

Compound: CCCCc1ccc(B(O)O)cc1 [4-butylphenyl boronic acid]
- LogP ([2]; Table 1 boronic acids): 3.64
- Water solubility g/L (20° C.) ([3]; Table 1 boronic acids): Insoluble

Compound: OB(O)c1cccc2ccccc12 [naphthalene-1-boronic acid]
- Water solubility g/L (20° C.) ([3]; Table 1 boronic acids): 0.3 g/L

Compound: CC(C)CB(O)O [(2-methylpropyl) boronic acid]
- LogP ([2]; Table 1 boronic acids): 0.6
- Water solubility g/L (20° C.) ([3]; Table 1 boronic acids): 33 g/L

Compound: O=Cc1ccco1 [Furfural]
- mol % of the component in Non-aqueous Phase with respect to the biphasic solution [1]: (88 mol %)
- molar concentration in Aqueous Phase [1]: 46 mM
- molar concentration in Non-aqueous Phase [1]: 352 mM
- mol % of the component in Non-aqueous Phase with respect to the biphasic solution ([1]; listed as furfural): 88 mol %

Compound: CCc1ccc(O)cc1 [4Et-phenol]
- LogP ([2]; Table 2 solvents): 2.47
- Water solubility g/L (20° C.) ([3]; Table 2 solvents): 6.1 g/L

Compound: CCc1ccccc1 [Ethylbenzene]
- LogP ([2]; Table 2 solvents): 2.96
- Water solubility g/L (20° C.) ([3]; Table 2 solvents): 0.15 g/L

Compound: Methylnaphtalene [MN]
- molar concentration in Aqueous Phase [1]: 2 mM
- molar concentration in Non-aqueous Phase [1]: 7.03M

Compound: OB(O)C1CCCCC1 [Cyclohexyl boronic acid]
- LogP ([2]; Table 1 boronic acids): 1.90
- Water solubility g/L (20° C.) ([3]; Table 1 boronic acids): 25 g/L

Compound: CCCCCCC [heptane]
- LogP ([2]; Table 2 solvents): 4.47
- Water solubility g/L (20° C.) ([3]; Table 2 solvents): 0.003 g/L

Compound: c1ccc2occc2c1 [Benzofuran]
- LogP ([2]; Table 2 solvents): 2.67
- Water solubility g/L (20° C.) ([3]; Table 2 solvents): insoluble

Compound: OB(O)c1ccccc1 [phenylboronic acid]
- LogP ([2]; Table 1 boronic acids): 1.59
- Water solubility g/L (20° C.) ([3]; Table 1 boronic acids): 10 g/L
- water solubility [3]: 1 wt %
- molar concentration in Aqueous Phase [1]: 129 mM
- molar concentration in Non-aqueous Phase [1]: 566 mM

Compound: CC(C)OC(C)C [Diisopropyl ether]
- LogP ([2]; Table 2 solvents): 2.03
- Water solubility g/L (20° C.) ([3]; Table 2 solvents): 1.7 g/L

Compound: COc1ccccc1 [anisole]
- Water solubility g/L (20° C.) ([3]; Table 2 solvents): 1.5 g/L

Compound: CCCCCCCCO [1-octanol]
- LogP ([2]; Table 2 solvents): 3.10
- Water solubility g/L (20° C.) ([3]; Table 2 solvents): 0.3 g/L

Compound: CC(C)(C)c1ccc(B(O)O)cc1 [4-tert-Butylphenyl boronic acid]
- LogP ([2]; Table 1 boronic acids): 3.28
- Water solubility g/L (20° C.) ([3]; Table 1 boronic acids): Insoluble

Compound: Cc1cccc(C)c1O [2,6 xylenol]
- LogP ([2]; Table 2 solvents): 2.40

Compound: OB(O)CCc1ccccc1 [Phenethyl boronic acid]
- LogP ([2]; Table 1 boronic acids): 1.20
- Water solubility g/L (20° C.) ([3]; Table 1 boronic acids): 1.8 g/L

Compound: COc1ccccc1O [guaiacol]
- LogP ([2]; Table 2 solvents): 0.97
- Water solubility g/L ([3]; 25° C., Table 2 solvents): 18.7 (25° C.) g/L
